The target of experiment [1] is T1, human GLP-1R receptor (Homo sapiens, UniProt P43220, L260F).
T1 construct: expressed in transfected cells; host or cells: CHO-K1 (ATCC CCL-61)
As to the kind of experiment: CHOK1 GLP-1R cAMP Assay (HTRF). It counts as cell-based. As to conditions: CHO-K1 cells stably expressing human GLP-1R (Leu260Phe variant), 20 min at rt. As to the method: A cell line stably expressing the human GLP-1R receptor (NM_002062.5, including the naturally-occurring variant Leu260Phe) in a CHO-K1 (ATCC® CCL-61™) was used for assay.
GLP-1 receptor mediated agonist activity was determined in a cell-based assay measuring cyclic adenosine monophosphate (cAMP) levels in cells using Homogeneous Time-Resolved Fluorescence (HTRF) cAMP detection kit (CisBio catalog #62AM4PEC, cAMP Gs Dynamic range kit). The cAMP detection method is based on a competitive immunoassay, in which cAMP produced by the cells and cAMP labeled with the dye d2 compete for binding to a Europium-Cryptate-labeled anti-cAMP antibody. The specific HTRF signal is inversely proportional to the concentration of cAMP.
Compounds were added to individual well in 384 well-assay plates (Greiner #784076) using an Echo (LabCyte) dispenser from 10 mM stocks. Varying concentration of compounds were added to wells, and DMSO was used to normalize each well to a volume of 100 nL. A dose response curve of GLP-1(7-36)NH2 (Bachem H-6795) was included in each run. 5 μL of cAMP concentration response standards are applied in specified wells in the assay plates. Cryo-preserved cells are thawed and resuspended in assay buffer pre-heated to 37° C. (20 mM 2-[4-(2-hydroxyethyl)piperazin-1-yl]ethanesulfonic acid (HEPES) pH 7.4, 1× Hank's Balanced Salt Solution (HBSS, Life Technologies #14065) supplemented with 0.1% (w/v) bovine serum albumin (Sigma, A-7030)). Cells were centrifuged at 250*g for 5 min at rt, and resuspended in room tempered assay buffer to a final density of 0.16*10^6 cell/mL, to deliver 800 cells/well. 5 μL of assay buffer with 1 mM 3-isobutyl-1-methylxanthin (IBMX; Sigma cat I-7018) was dispensed per well in assay plates using a multidrop combi (Thermo Scientific) subsequently 5 μL of cell suspension was distributed to relevant wells in the assay using a multidrop dispenser. Assay plates were incubated 20 min at rt.
Detection reagents, Europium-Cryptate-labeled anti-cAMP antibody and cAMP labeled with the dye d2, are diluted in lysis buffer, provided by the manufacturer. 5 μL of each detection reagent is supplemented to each assay well using a multidrop dispenser. Assay plates are incubated in the dark for at least one h. The HTRF signal is measured using the HTRF module (excitation: 337 nm, emission A: 665 nm and emission B: 620 nm) in Pherastar FSX (BMG Labtech).
Raw data were converted to pM cAMP using the cAMP standard curve included in each run. Converted data were further analyzed in Genedata Screener (Genedata) and EC50 determinations were made from agonist dose-response curves analyzed with a curve fitting is program using a 4-parameter logistic dose response equation (Equation y=A+((B-A)/1+((C/x)^D))) where A is no stimulation, B is full stimulation, C is the EC50 and D is the Hill slope). The percent effect was determined relative to a saturating concentration of a full GLP-1R agonist (GLP-1(7-36)NH2 has 100% effect in this assay setup).

For experiment [2], the target named is T2, GLP-1R in a pancreatic insulinoma cell line (EndoC-PH1) (Homo sapiens, UniProt P43220).
T2 construct: host or cells: EndoC-βH1 human pancreatic beta cell line
Description: EndoC cAMP Accumulation Assay (HTRF). Format: cell-based. As to conditions: EndoC-PH1 human pancreatic beta cell line, endogenous GLP-1R, 30 min at rt. The text has this:
EndoC cAMP Accumulation Assay
A HTRF cAMP assay (cAMP Gs dynamic kit; CisoBio Cat #62AM4PEJ) was used to identify agonists of GLP-1R in a pancreatic insulinoma cell line (EndoC-PH1). […] EndoC-PHlcells have detectable GLP-1R messenger ribonucleic acid (mRNA) as detected by quantitative polymerase chain reaction (qPCR). […] The EndoC-PH1 cell line is a valid model of human beta cells and applicable for screenings to identify novel drug target candidates (Mol. Metab., 2018, 8, 144-157). CisBio HTRF cAMP kits are based on a competitive immunoassay using cryptate-labelled anti-cAMP antibody and d2-labeled cAMP. The detection kit is intended for the direct is quantitative determination of cAMP. The specific signal (i.e. energy transfer) is inversely proportional to the concentration of cAMP in the standard or sample. Test compounds (10 mM in DMSO) were diluted into assay buffer (HBSS (Sigma #H8264) supplemented with 25 mM HEPES (Gibco #15630, pH 7.4), 0.1% BSA (Sigma #A3059) and 0.5 mM IBMX (Sigma #I7018) included fresh on the day of the assay) into 96 well U-bottom plates (Greiner #650201). Diluted compounds were transferred to ECHO source polypropelene plates (Labcyte #P-05525) and dose response curves were dispensed acoustically using ECHO 550 into black shallow-well u-bottom 384-well HTRF Assay Plates (Corning 4514). Cryovials of EndoC-H1 (supplied at 1×10e^7 cells/vial) were used directly for screening. The cryovials and were removed from N2(1) and thawed rapidly in a 37° C. water bath. The cells were resuspended in assay buffer and centrifuged at 300 g for 5 min. Cells were resuspended in assay buffer at the appropriate concentration, typically at 12e5 cells per mL (3000 cells per well, dependent on cell batch) and 2.5 μL diluted cells were added to all wells of destination plate by Multidrop combi reagent dispenser (Thermofisher). The plates were incubated at rt for 30 min. The assay was stopped by adding 2.5 μL anti-cAMP cryptate solution to all wells and 2.5 μL cAMP-d2 solution (both diluted 1:20 in lysis buffer) to columns 1-22 by Combi drop. A volume of 2.5 μL cAMP-d2 solution was added to wells E23 to P24 and 2.5 μL lysis buffer added to wells A23 to D24 by multichannel pipette. The plates were incubated at rt for 1 h and read on an Envision plate reader using excitation wavelength of 320 nm and emission of […] and 660 nm.
Raw data from Envision is converted to % DeltaF according to the manufacturer's instructions. Dose response curves are analysed via 4-Parameter Logistical Analysis and assay plate Z’ values obtained. Samples are graphed as percentage (%) activation plots compared to […] with assay window defined by negative control as basal cell is cAMP levels and positive control are defined by maximum GIP (82.5 nM) signal. GLP-1 (7-36 amide, Bachem H-6795) dose response curve was included on all plates.

T1 sequence (P43220 24-463 L260F): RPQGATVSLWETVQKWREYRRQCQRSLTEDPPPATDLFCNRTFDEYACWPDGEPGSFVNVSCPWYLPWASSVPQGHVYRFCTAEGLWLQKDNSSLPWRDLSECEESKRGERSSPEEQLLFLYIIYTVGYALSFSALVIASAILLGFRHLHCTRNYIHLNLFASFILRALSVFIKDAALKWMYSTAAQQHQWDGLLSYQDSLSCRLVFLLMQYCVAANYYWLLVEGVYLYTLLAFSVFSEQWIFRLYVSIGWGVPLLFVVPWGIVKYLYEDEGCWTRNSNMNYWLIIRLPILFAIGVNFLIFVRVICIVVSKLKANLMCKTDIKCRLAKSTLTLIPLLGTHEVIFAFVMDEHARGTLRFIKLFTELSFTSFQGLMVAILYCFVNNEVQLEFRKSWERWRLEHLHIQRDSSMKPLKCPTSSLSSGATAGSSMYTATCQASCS
T2 sequence (P43220 24-463): as the sequence (P43220 24-463 L260F) above, with F237L counted along it

In the case of `C[C@]1(c2ccc(Cl)cn2)Oc2cccc(N3CCN(Cc4nc5c(Cl)cc(C(=O)O)cc5n4CC4(CC#N)CC4)[C@H]4CC[C@@H]43)c2O1` (single isomer, unassigned) [Example 26a], the EC50 in experiment [1] came to 350 nM; in experiment [2] it was 450 nM.
Take `COc1cc(C(=O)O)cc2c1nc(CN1CCN(c3cccc4c3O[C@@](C)(c3ccc(Cl)cn3)O4)[C@H]3CC[C@@H]31)n2CC1(C#N)CC1` (single isomer, unassigned) [Example 25c]: the 50% effective concentration (EC50) in experiment [1] was 1.2 nM; in experiment [2] it was 3.1 nM.
With `C[C@]1(c2ccc(Cl)cn2)Oc2cccc(N3CCN(Cc4nc5c(F)cc(C(=O)O)cc5n4CC4(C#N)CC4)[C@H]4CC[C@@H]43)c2O1` (single isomer, unassigned) [Example 24b], the EC50 in experiment [1] stood at 2.1 nM; in experiment [2], 8 nM.
With `COc1cc(C(=O)O)cc2c1nc(CN1CCN(c3cccc4c3O[C@@](C)(c3ccc(Cl)cn3)O4)[C@@H]3CC[C@@H]31)n2C[C@@H]1CCCO1` (single isomer, unassigned) [Example 8a], the EC50 in experiment [1] came to 6.2 nM; in experiment [2], 6.6 nM.
As to `CCn1ccnc1Cn1c(CN2CCN(c3cccc4c3O[C@@](C)(c3ccc(Cl)cn3)O4)[C@H]3CC[C@@H]32)nc2c(Cl)cc(C(=O)O)cc21` (single isomer, unassigned) [Example 10b], the concentration for a half-maximal effect (EC50) is 19 nM in experiment [1] and 76 nM in experiment [2].
Turning to `C[C@]1(c2ccc(Cl)cn2)Oc2cccc(N3CCN(Cc4nc5ccc(C(=O)O)cc5n4C[C@@H]4CCO4)[C@H]4CC[C@@H]43)c2O1` (single isomer, unassigned) [Example 22a, 2-(((1R*,6R*)-5-((R*)-2-(5-Chloropyridin-2-yl)-2-methylbenzo[d][1,3]dioxol-4-yl)-2,5-diazabicyclo[4.2.0]octan-2-yl)methyl)-1-(((S)-oxetan-2-yl)methyl)-1H-benzo[d]imidazole-6-carboxylic acid], the EC50 in experiment [1] was 29 nM; in experiment [2], 49 nM.
Consider `C[C@]1(c2ccc(Cl)cn2)Oc2cccc(N3CCN(Cc4nc5c(Cl)cc(C(=O)O)cc5n4CC4(CC#N)CC4)[C@H]4CC[C@@H]43)c2O1` (single isomer, unassigned) [Example 26b], for which the EC50 in experiment [1] amounted to 1.5 nM; in experiment [2], 2 nM.
For `C[C@]1(c2ccc(Cl)cn2)Oc2cccc(N3CCN(Cc4nc5c(Cl)cc(C(=O)O)cc5n4C[C@@H]4CCO4)[C@H]4CC[C@H]43)c2O1` (single isomer, unassigned) [Example 20c, 4-Chloro-2-(((1R*,6S*)-5-((R*)-2-(5-chloropyridin-2-yl)-2-methylbenzo[d][1,3]dioxol-4-yl)-2,5-diazabicyclo[4.2.0]octan-2-yl)methyl)-1-(((S)-oxetan-2-yl)methyl)-1H-benzo[d]imidazole-6-carboxylic acid] the same measures were 0.81 nM and 2.2 nM.
For `C[C@]1(c2ccc(Cl)cc2F)Oc2cccc(N3CCN(Cc4nc5c(F)cc(C(=O)O)cc5n4C[C@@H]4CCO4)[C@H]4CC[C@H]43)c2O1` (single isomer, unassigned) [Example 9c, 2-(((1R*,6S*)-5-((R*)-2-(4-Chloro-2-fluorophenyl)-2-methylbenzo[d][1,3]dioxol-4-yl)-2,5-diazabicyclo[4.2.0]octan-2-yl)methyl)-4-fluoro-1-(((S)-oxetan-2-yl)methyl)-1H-benzo[d]imidazole-6-carboxylic acid] the same measures were 28 nM and 74 nM.
`COc1cc(C(=O)O)cc2c1nc(CN1CCN(c3cccc4c3O[C@@](C)(c3ccc(Cl)cn3)O4)[C@H]3CC[C@@H]31)n2C[C@@H]1CCCO1` (single isomer, unassigned) [Example 7c, 2-(((1R*,6R*)-5-((R*)-2-(5-Chloropyridin-2-yl)-2-methylbenzo[d][1,3]dioxol-4-yl)-2,5-diazabicyclo[4.2.0]octan-2-yl)methyl)-4-methoxy-1-(((S)-tetrahydrofuran-2-yl)methyl)-1H-benzo[d]imidazole-6-carboxylic acid]: the EC50 in experiment [1] was found to be 110 nM; in experiment [2], 32 nM.
On to `C[C@]1(c2ccc(Cl)cn2)Oc2cccc(N3CCN(Cc4nc5c(Cl)cc(C(=O)O)cc5n4CC4(CC#N)CC4)[C@H]4CC[C@@H]43)c2O1` (single isomer, unassigned) [Example 26c], for which the values for the 50% effective concentration (EC50) in experiment [1] and in experiment [2] were 64 nM and 160 nM, respectively.
As to `C[C@]1(c2ccc(Cl)cc2F)Oc2cccc(N3CCN(Cc4nc5ccc(C(=O)O)cc5n4C[C@@H]4CCO4)[C@H]4CC[C@H]43)c2O1` (single isomer, unassigned) [Example 18a, 2-(((1R*,6S*)-5-((R*)-2-(4-Chloro-2-fluorophenyl)-2-methylbenzo[d][1,3]dioxol-4-yl)-2,5-diazabicyclo[4.2.0]octan-2-yl)methyl)-1-(((S)-oxetan-2-yl)methyl)-1H-benzo[d]imidazole-6-carboxylic acid], the results for the EC50 in experiment [1] and in experiment [2] were 0.98 nM and 3.3 nM, respectively.
On to `COc1cc2nc(CN3CCN(c4cccc5c4OC(C)(c4ccc(Cl)cn4)O5)[C@H]4CC[C@@H]43)n(C[C@@H]3CCO3)c2cc1C(=O)O` (mixture of isomers) [Example 12, 2-(((1RS,6RS)-5-(2-(5-Chloropyridin-2-yl)-2-methylbenzo[d][1,3]dioxol-4-yl)-2,5-diazabicyclo[4.2.0]octan-2-yl)methyl)-5-methoxy-1-(((S)-oxetan-2-yl)methyl)-1H-benzo[d]imidazole-6-carboxylic acid], for which the EC50 in experiment [1] was 200 nM; in experiment [2] it was 320 nM.
Consider `COc1cc(C(=O)O)cc2c1nc(CN1CCN(c3cccc4c3O[C@@](C)(c3ccc(Cl)cn3)O4)[C@H]3CC[C@@H]31)n2CC1(C#N)CC1` (single isomer, unassigned) [Example 25b], for which the concentration giving a half-maximal response (EC50) in experiment [1] is 6.2 nM; in experiment [2], 7.5 nM.

(Values after patent publication US20240417393A1, “CERTAIN 2,5-DIAZABICYCLO[4.2.0]OCTANES AS GLP-1 RECEPTOR MODULATORS” (ASTRAZENECA AB, priority 2021, published 2024).)
